Data reported in US7105534B2, “Imidazo[1,2-α]pyridine ether compounds as ion channel modulators” (Cardiome Pharma Corp., priority 2000, dated 2006).
Where a name gives a salt, the structure may show the parent alone.

Tests used:
HERG = biological target: T1, HERG (Homo sapiens, UniProt Q12809); experiment: Patch-clamp inhibition of cloned ion channel current in transfected HEK cells: HERG; type: cell-based; details: whole-cell patch clamp
T1 construct: expressed in transfected cells; host or cells: HEK cells, transient transfection, vector pCDNA3
Description: (§1) The relevant cloned ion channels (e.g. cardiac hH1, Kv1.4, Kv1.5, Kv4.2, Kv2.1, HERG etc.) are studied by transient transfection into HEK cells using the mammalian expression vector pCDNA3. Transfections for each channel type are carried out separately to allow individual study of the ion channel of interest. Cells expressing channel protein are detected by cotransfecting cells with the vector pHook-1 (Invitrogen, San Diego, Calif., USA). […] Equal concentrations of individual channel and pHook DNA are incubated with 10× concentration of lipofectAce in Modified Eagle's Medium (MEM, Canadian Life Technologies) and incubated with parent HEK cells plated on 25 mm culture dishes. After 3–4 hours the solution is replaced with a standard culture medium plus 20% fetal bovine serum and 1% antimycotic. Transfected cells are maintained at 37C in an air/5% CO2 incubator in 25 mm Petri dishes plated on glass coverslips for 24–48 hours to allow channel expression to occur. 20 min prior to experiments, cells are treated with beads coated with phOX. After 15 min, excess beads are […] off with cell culture medium and cells which had beads stuck to them are used for electrophysiological tests.
(§2) For whole-cell recording the control pipette filling solution contained (in mM): KCl, 130; EGTA, 5; MgCl2, 1; HEPES, 10; Na2ATP, 4; GTP, 0.1; and is adjusted to pH 7.2 with KOH. The control bath solution contained (in mM): NaCl, 135; KCI, 5; sodium acetate, 2.8; MgCl2, 1; HEPES, 10; CaCl2, 1; and is adjusted to pH 7.4 with NaOH. The test ion channel modulating compound is dissolved to 10 mM stock solutions in water and used at concentrations between 0.5 and 100 μM.
(§3) Coverslips containing cells are removed from the incubator before experiments and placed in a superfusion chamber (volume 250 μl) containing the control bath solution at 22C to 23C. All recordings are made via the variations of the patch-clamp technique, using an Axopatch 200A amplifier (Axon Instruments, CA). Patch electrodes are pulled from thin-walled borosilicate glass (World Precision Instruments; FL) on a horizontal micropipette puller, fire-polished, and filled with appropriate solutions. Electrodes had resistances of […] when filled with control filling solution. Analog capacity compensation is used in all whole cell measurements. In some experiments, leak subtraction is applied to data. Membrane potentials have not been corrected for any junctional potentials that arose between the pipette and bath solution. Data are filtered at 5 to 10 kHz before digitization and stored on a microcomputer for later analysis using the pClamp6 software (Axon Instruments, Foster City, Calif.). Due to the high level of expression of channel cDNA's in HEK cells, there is no need for signal averaging. The average cell capacitance is quite small, and the absence of ionic current at negative membrane potentials allowed faithful leak subtraction of data.
(§4) The concentration-response curves for changes in peak and steady-state current produced by the test compound are computer-fitted to the Hill equation: f=1−1/[1+([…])^n] [1]
(§5) where f is the fractional current (f=Idrug/Icontrol) at drug concentration [D]; IC50 is the concentration producing half-maximal inhibition and n is the Hill coefficient.
(§6) Compounds of the present invention may be evaluated by this method. […] Block is determined from the decrease in peak hH1 Na^+ current, or in steady-state Kv1.5 and integrated Kv4.2 current in the presence of drug. To record Na^+ current, cells are depolarized from the holding potential of −100 mV to a voltage of −30 mV for 10 ms to fully open and inactivate the channel. To record Kv1.5 and Kv4.2 current, cells are depolarized from the holding potential of −80 mV to a voltage of +60 mV for 200 ms to fully open the channel. Currents are recorded in the steady-state at a range of drug concentrations during stimulation every 4 s. […]

CD-1 mice = experiment: Assessment of pain blockage: pin prick, mouse tail; type: in vivo; details: injection into lateral tail vein with tourniquet
Description: CD-1 mice (20–30 g) are restrained in an appropriate holder. A tourniquet is placed at the base of the tail and a solution of the test compound (50 μl, 5 mg/ml) is injected into the lateral tail vein. The tourniquet is removed 10 min after the injection. Suitable dilutions of compound solution are used to obtain an ED50 for pain blockade at various times after injection. Pain responses are assessed by pin prick at regular intervals up to 4 hours post injection and the duration of pain blockage is recorded for three animals for each test compound solution. Compounds of the present invention may be evaluated according to the method described.

Kv1.5 = biological target: T2, Kv1.5 (Homo sapiens, UniProt P22460); experiment: Patch-clamp inhibition of cloned ion channel current in transfected HEK cells: Kv1.5; type: cell-based; details: steady-state current, -80 mV to +60 mV
T2 construct: expressed in transfected cells; host or cells: HEK cells, transient transfection, vector pCDNA3
Description: as §1, §2, §3, §4, §5, §6

Sprague Dawley rats = experiment: Cardiovascular and behavioral effects: ECG changes during i.v. infusion in conscious rats; type: in vivo, rat; details: for D25 QT (dose required to produce a 25% increase in Q-T interval): indicates cardiac potassium channel blockade
Description: Preparative surgery is performed in Sprague Dawley rats weighing 200–300 gm and anaesthetized with 65 mg/kg (i.p.) pentobarbital. The femoral artery and vein are cannulated using polyethylene (PE)-10 tubing. Prior to surgery, this PE-10 tubing had been annealed to a wider gauge (PE-50) tubing for externalization. The cannulated PE-10/PE-50 tubing is passed through a trocar and exteriorised together with three (lead II) limb ECG leads (see below). The trocar is threaded under the skin of the back and out through a small incision at the mid-scapular region. A ground ECG electrode is inserted subcutaneously using a 20 gauge needle with the lead wire threaded through it. To place the other ECG electrodes, a small incision is made in the anterior chest region over the heart and ECG leads are inserted into the subcutaneous muscle layer in the region of the heart using a 20 guage needle. Other ECG leads are inserted into the subcutaneous muscle layer in the region near the base of the neck and shoulder (right side). The animal is returned to a clean recovery-cage with free access to food and water. The treatment and observational period for each animal commenced after a 24-hour recovery period.
A 15 min observational period is recorded followed by the intravenous infusion regime of the test compound at an initial dose of 2.0 μmol/kg/min (at 1 ml/hr). This rate is doubled every 5 minutes until one of the following effects is observed:
Blood pressure (BP), heart rate (HR) and ECG variables are continuously recorded while behavioral responses are also monitored and the total accumulative drug dose and drug infusion rate at which the response (such as convulsion, piloerection, ataxia, restlessness, compulsive chewing, lip-smacking, wet dog shake etc.) occurred are recorded.
Electrocardiograph (ECG) parameters: PR, QRS, QT1 (peak of T-wave), QT2 (midpoint of T-wave deflection) and hemodynamic parameters: BP and HR are analyzed using the automated analysis function in LabView (National Instruments) with a customized autoanalysis software (Nortran Pharmaceuticals). The infused dose producing 25% from control (D25) for all recorded ECG variables is determined.
Table 2 describes the results of the tests as D25 (micromol/kg) which are the doses required to produce a 25% increase in the ECG parameter measured (ne=not estimated). The increases in P-R interval and QRS interval indicate cardiac sodium channel blockade while the increase in Q-T interval indicates cardiac potassium channel blockade.

Kv4.2 = biological target: T3, Kv4.2 (Homo sapiens, UniProt Q9NZV8); experiment: Patch-clamp inhibition of cloned ion channel current in transfected HEK cells: Kv4.2; type: cell-based; details: integrated current, -80 mV to +60 mV
T3 construct: expressed in transfected cells; host or cells: HEK cells, transient transfection, vector pCDNA3
T3 sequence (Q9NZV8 1-630): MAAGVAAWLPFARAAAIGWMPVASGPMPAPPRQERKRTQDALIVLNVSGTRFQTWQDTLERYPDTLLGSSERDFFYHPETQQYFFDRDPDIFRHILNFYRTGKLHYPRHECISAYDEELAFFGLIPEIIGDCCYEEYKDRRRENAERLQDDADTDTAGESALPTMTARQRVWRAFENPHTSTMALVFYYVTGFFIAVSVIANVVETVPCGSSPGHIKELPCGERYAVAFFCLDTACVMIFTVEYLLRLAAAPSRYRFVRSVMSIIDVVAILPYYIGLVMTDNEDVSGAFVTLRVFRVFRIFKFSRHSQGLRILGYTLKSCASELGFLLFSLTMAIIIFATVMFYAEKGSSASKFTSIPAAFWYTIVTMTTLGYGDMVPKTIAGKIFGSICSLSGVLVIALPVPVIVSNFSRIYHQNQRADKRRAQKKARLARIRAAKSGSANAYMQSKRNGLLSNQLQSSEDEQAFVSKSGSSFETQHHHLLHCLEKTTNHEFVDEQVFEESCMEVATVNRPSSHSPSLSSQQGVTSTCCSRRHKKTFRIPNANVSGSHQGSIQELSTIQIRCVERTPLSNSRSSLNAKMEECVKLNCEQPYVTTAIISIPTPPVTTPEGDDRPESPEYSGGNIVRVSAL
Description: as §1, §2, §3, §4, §5, §6

hH1 Na+ current = biological target: T4, hH1 Na+ current (Homo sapiens, UniProt Q14524); experiment: Patch-clamp inhibition of cloned ion channel current in transfected HEK cells: Na; type: cell-based; details: peak hH1 Na+ current, -100 mV to -30 mV
T4 construct: expressed in transfected cells; host or cells: HEK cells, transient transfection, vector pCDNA3
Description: as §1, §2, §3, §4, §5, §6

Mongrel dogs = experiment: Canine vagal-AF model: termination of sustained atrial fibrillation; type: in vivo, dog; details: IV
Description: Mongrel dogs of either sex weighing 15-49 kg are anesthetized with morphine (2 mg/kg im initially, followed by 0.5 mg/kg IV every 2 h) and α-chloralose (120 mg/kg IV followed by an infusion of 29.25 mg/kg/h; St.-Georges et al., 1997). Dogs are ventilated mechanically with room air supplemented with oxygen via an endotracheal tube at 20 to 25 breaths/minute with a tidal volume obtained from a nomogram. […] Catheters are inserted into the femoral artery for blood pressure recording and blood gas measurement, and into both femoral veins for drug administration and venous sampling. Catheters are kept patent with heparinized 0.9% saline solution. Body temperature is maintained at 37-40° C. with a heating blanket. […] Drug effects to terminate sustained AF maintained during continuous vagal nerve stimulation are assessed. […] The vagal stimulation voltage is adjusted under control conditions, and then readjusted after each treatment to maintain the same bradycardic effect. […] Diastolic threshold current is determined at a basic cycle length of 300 ms by increasing the current 0.1 mA incrementally until stable capture is obtained. […] Atrial and ventricular ERP is measured with the extrastimulus method, over a range of S1S2 intervals at a basic cycle length of 300 ms. […] Diastolic threshold and ERP are determined in duplicate and averaged to give a single value. […]

[1] = indicates cardiac sodium channel blockade

T2 sequence (P22460 whole entry): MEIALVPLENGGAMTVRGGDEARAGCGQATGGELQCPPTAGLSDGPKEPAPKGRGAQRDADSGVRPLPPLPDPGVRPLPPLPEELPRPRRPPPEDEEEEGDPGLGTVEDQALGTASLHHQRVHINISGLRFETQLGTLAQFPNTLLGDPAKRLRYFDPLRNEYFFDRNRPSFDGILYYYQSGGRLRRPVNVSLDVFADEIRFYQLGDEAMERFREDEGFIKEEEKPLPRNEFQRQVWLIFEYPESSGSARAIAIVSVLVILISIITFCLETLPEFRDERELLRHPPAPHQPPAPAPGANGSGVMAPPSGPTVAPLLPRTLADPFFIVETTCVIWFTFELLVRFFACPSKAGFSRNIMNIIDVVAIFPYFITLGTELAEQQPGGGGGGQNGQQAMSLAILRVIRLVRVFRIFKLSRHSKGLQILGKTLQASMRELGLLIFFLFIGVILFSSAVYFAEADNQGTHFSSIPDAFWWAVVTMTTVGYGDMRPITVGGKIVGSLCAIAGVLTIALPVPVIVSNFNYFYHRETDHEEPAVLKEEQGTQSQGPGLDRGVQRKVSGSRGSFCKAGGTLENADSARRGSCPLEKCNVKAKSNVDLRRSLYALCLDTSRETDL
T1 sequence (Q12809 whole entry): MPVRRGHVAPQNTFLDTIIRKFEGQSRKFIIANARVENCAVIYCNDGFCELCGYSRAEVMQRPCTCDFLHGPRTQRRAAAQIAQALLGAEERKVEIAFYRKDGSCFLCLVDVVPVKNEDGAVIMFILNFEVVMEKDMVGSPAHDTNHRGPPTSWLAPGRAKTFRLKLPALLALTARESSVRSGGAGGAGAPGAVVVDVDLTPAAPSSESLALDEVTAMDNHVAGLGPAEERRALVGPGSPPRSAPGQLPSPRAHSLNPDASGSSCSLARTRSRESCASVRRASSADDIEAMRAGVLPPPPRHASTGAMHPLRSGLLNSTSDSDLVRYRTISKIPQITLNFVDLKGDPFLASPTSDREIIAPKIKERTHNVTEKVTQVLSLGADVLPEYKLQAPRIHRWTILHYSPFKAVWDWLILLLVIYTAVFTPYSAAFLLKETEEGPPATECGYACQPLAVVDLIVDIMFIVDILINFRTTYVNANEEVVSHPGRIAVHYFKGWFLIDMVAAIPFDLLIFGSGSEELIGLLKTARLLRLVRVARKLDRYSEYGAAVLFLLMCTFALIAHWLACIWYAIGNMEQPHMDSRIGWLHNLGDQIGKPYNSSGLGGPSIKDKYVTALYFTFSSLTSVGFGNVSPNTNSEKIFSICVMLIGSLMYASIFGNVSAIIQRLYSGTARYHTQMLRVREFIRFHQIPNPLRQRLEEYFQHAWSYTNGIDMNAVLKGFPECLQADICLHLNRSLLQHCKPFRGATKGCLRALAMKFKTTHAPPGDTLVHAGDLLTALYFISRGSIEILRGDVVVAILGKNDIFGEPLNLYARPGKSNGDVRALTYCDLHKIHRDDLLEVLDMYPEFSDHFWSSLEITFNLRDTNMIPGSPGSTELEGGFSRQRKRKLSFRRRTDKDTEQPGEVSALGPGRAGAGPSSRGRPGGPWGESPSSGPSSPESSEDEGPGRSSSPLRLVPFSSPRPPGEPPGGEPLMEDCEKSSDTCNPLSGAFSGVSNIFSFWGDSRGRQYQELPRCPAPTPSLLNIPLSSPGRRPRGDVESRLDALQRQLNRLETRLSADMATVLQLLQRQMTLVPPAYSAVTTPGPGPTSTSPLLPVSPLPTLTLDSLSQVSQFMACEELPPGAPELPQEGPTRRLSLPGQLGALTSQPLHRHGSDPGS
T4 sequence (Q14524 whole entry): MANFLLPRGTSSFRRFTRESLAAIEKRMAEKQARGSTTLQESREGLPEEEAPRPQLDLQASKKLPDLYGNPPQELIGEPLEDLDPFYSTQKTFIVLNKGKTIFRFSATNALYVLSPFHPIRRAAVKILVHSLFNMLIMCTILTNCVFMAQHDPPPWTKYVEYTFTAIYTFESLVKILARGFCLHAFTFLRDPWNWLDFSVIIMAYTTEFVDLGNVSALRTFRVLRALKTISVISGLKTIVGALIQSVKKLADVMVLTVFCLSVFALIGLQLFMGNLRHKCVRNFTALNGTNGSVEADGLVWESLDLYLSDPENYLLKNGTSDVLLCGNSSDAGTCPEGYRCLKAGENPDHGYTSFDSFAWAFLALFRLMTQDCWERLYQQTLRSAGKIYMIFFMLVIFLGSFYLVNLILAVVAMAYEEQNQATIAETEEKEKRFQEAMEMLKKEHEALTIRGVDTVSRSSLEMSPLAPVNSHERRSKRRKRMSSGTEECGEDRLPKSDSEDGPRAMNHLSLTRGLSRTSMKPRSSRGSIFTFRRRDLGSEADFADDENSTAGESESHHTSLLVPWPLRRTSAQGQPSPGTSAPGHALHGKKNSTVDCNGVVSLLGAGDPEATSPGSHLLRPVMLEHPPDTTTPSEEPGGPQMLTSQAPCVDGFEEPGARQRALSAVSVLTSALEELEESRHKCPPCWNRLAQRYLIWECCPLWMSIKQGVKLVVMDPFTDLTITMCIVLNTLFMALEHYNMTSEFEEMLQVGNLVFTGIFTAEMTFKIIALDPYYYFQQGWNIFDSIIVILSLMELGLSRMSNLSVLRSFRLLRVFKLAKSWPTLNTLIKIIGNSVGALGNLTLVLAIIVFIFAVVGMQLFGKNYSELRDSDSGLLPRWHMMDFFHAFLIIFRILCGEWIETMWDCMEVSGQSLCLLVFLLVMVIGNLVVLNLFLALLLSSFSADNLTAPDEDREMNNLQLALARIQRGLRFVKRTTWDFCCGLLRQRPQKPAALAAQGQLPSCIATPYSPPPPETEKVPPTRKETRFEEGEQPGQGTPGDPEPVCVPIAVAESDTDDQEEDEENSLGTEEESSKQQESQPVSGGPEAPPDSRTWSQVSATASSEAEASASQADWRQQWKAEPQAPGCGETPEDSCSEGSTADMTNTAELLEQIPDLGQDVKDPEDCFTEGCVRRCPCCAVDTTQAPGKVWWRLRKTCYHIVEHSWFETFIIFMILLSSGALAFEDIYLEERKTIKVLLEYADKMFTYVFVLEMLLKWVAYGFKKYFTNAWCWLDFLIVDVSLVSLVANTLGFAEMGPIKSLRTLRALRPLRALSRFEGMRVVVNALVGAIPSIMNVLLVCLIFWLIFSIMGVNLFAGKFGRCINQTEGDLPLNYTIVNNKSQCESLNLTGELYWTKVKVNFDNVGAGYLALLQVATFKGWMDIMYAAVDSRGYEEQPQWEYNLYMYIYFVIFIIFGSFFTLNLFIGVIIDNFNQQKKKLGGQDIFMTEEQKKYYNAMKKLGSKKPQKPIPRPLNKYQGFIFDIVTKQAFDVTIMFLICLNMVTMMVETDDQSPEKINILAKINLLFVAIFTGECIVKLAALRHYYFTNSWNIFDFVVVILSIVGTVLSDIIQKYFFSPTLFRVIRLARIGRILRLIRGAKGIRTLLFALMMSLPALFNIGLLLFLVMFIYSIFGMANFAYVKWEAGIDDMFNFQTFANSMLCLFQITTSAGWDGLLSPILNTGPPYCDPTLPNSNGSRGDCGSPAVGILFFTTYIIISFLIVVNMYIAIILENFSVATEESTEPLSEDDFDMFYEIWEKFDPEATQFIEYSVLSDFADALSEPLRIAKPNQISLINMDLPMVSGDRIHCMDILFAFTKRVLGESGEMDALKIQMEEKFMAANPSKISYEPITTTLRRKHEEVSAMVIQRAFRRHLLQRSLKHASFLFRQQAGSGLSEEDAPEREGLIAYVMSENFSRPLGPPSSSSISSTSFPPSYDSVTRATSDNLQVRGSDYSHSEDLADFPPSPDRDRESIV

melting point | IC50 (Kv1.5) | IC50 (Kv4.2) | IC50 (hH1 Na+ current) | Compound | IC50 (HERG) | ED50 for pain blockade (CD-1 mice) | D25 QT (dose required to produce a 25% increase in Q-T interval) (Sprague Dawley rats) | D25 PR (dose required to produce a 25% increase in P-R interval) (Sprague Dawley rats; [1]) | D25 QRS (dose required to produce a 25% increase in QRS interval) (Sprague Dawley rats; [1]) | Median dose required for termination of AF (Mongrel dogs) | Mean dose required for termination of AF (Mongrel dogs; mean ±SEM)
< 193 °C | – | – | – | Cc1cn2cccc(OCCCc3ccc(Cl)cc3Cl)c2n1 (as salt: hydrochloride) [Compound 1, 8-[3-(2,4-DICHLOROPHENYL)PROPOXY]-2-METHYLIMIDAZO[1,2-α]PYRIDINEMONOHYDROCHLORIDE] | – | – | – | – | – | – | –
– | 0.3 µM | 2 µM | 8 µM | Cc1cn2cccc(OCCCc3ccc(Cl)cc3Cl)c2n1 [Compound 1, 8-[3-(2,4-DICHLOROPHENYL)PROPOXY]-2-METHYLIMIDAZO[1,2-α]PYRIDINEMONOHYDROCHLORIDE] | 0.1 µM | 0.073 mg/tail | 8 µmol/kg | 14 µmol/kg | 12 µmol/kg | – | –
– | 4 µM | 7 µM | 34 µM | Cc1cn2cccc(OCCCc3ccccc3)c2n1 [Compound 2, 2-METHYL-8-[3-PHENYLPROPOXY]IMIDAZO[1,2-α]PYRIDINE MONOHYDROCHLORIDE] | 0.06 µM | – | 16 µmol/kg | 24 µmol/kg | – | – | –
– | – | – | – | O=C(NCC1CCCCN1)c1cc(OCC(F)(F)F)ccc1OCC(F)(F)F (centres unmarked) [Flecainide] | – | – | – | – | – | 2.5 µmol/kg | 4 ± 2 µmol/kg
